Read-outs that look alike come from different tables or passages of the source. Blank lines part the entries; values can stand above or below the compound they belong to.
What was measured:
[1] = system: LNCaP prostate cancer cells; test: MTT cell viability assay, LNCaP cells; format: cell-based; details: Homo sapiens
Method: The compounds were tested for their ability to decrease LNCaP prostate cancer cell viability as measured by the 3-(4,5-dimethylthiazol-2-yl)-2,5-diphenyltetrazolium bromide) (MTT) assay.
(§1) Cell viability was determined using the 3-(4,5-dimethylthiazol-2-yl)-2,5-diphenyltetrazolium bromide) (MTT) assay. LNCaP and MCF-7 cells were seeded in 96-well plates (5000 cells/well) and incubated in their respective culture media supplemented with 10% FBS for 24 h. […] Drug-containing medium was then replaced with 1×MTT (0.5 mg/mL in RPMI 1640), followed by incubation at 37° C. for 2 h. After removal of medium, the reduced MTT dye was solubilized in 200 μL/well DMSO, and absorbances were measured at 570 nm.

cancer cells = details: reported in literature; cited from earlier work
[2] = system: normal prostate epithelial cells (PrECs)
Method: LNCaP hormone-responsive prostate cancer cells and MCF-7 ERα-positive breast cancer cells were obtained from the American Type Culture Collection (Manassas, Va.) and maintained with 10% fetal bovine serum (FBS)-supplemented RPMI 1640 medium and F12/DMEM medium, respectively. Nonmalignant prostate epithelial cells (PrEC) were maintained in prostate epithelial growth medium (PrEGM) (Lonza Inc., Walkersville, Md.). All cells were cultured at 37° C. in a humidified incubator containing 5% CO2. […] Glucose-free RPMI 1640 medium was purchased from Invitrogen (Carlsbad, Calif.). 2-DG, resveratrol, 3-methyladenine (3-MA), nicotinamide and splitomicin were purchased from Sigma-Aldrich (St. Louis, Mo.). The AMPK inhibitor Compound C and cycloheximide were obtained from Calbiochem (San Diego, Calif.). These agents were added to medium with a final DMSO concentration of 0.1%.
as §1

glucose metabolism = test: In vitro potency in blocking glucose metabolism; format: cell-based
[3] = system: MCF-7 breast cancer cells; test: MTT cell viability assay, MCF-7 cells; format: cell-based; details: Homo sapiens, MCF7, 72 h, 10% FBS-supplemented medium, read-out: IC50 in inhibiting the viability of MCF-7 breast cancer cells
Method: as §1

[4] = system: Sirt1 gene expression in LNCaP cells; test: Time course of Sirt1 expression in LNCaP cells (Western blot/RT-PCR); format: cell-based; details: OSU-CG12 10 μM, 2-DG 10 mM
Method: Total RNA was isolated from drug-treated LNCaP cells using the RNeasy mini kit (Qiagen, Valencia, Calif.), and then reverse-transcribed to cDNA using the Omniscript RT Kit (Qiagen) according to manufacturer's instructions. PCR products were separated electrophoretically in 1% agarose gels and visualized by ethidium bromide staining.
Transfections were performed by electroporation using Nucleofector kit R of the Amaxa Nucleofector system (Amaxa Biosystems, Cologne, Germany). LNCaP cells were transfected with the following plasmids or siRNA: WT- and H363Y-Flag-Sirt1 (DN-Sirt1), WT- and K45R-Myc-AMPK (DN-AMPK), GFP-LC3, TSC2 shRNA, and DDIT3 siRNA (GADD153). […] For the fluorescent microscopic analysis, LNCaP cells transfected with the GFP-LC3 expression plasmid or with scrambled or TSC2 shRNA were treated as indicated for 36 h. After cells were fixed with 3.7% formaldehyde at room temperature for 20 min, nuclear counterstaining was performed using a 4,6-diamidino-2-phenylindole (DAPI)-containing mounting medium (Vector Laborotaries, Burlingame, Calif.) before examination. Images were observed using a Nikon microscope (Eclipse TE300).

[5] = system: LPS-stimulated IL-6 production in THP-1 macrophages; test: ELISA of LPS-stimulated IL-6 production in THP-1 macrophages; format: cell-based, human; details: 10 μM; for first-tier screening result (AMPK/mTOR activation status and IL-6/IL-6 receptor signaling): LPS-stimulated THP-1 macrophages; for inhibition at 10 µM: Homo sapiens, 6 h, LPS-stimulated THP-1, read-out: inhibition of IL-6 production
Method: Cells and cell culture. THP-1 monocytic cells were purchased from the American Type Culture Collection (Rockville, Md.), and maintained with L-glutamine-containing RPMI 1640 supplemented with 10% fetal bovine serum (FBS), 0.25% glucose, 0.01% sodium pyruvate, 50 μM 2-mercaptoethanol, and 0.1 ml/ml penicillin/streptomycin/L-glutamine. Differentiation of THP-1 monocytes into macrophages was carried out by exposure to PMA (50 nM) in the aforementioned RPMI 1640 medium for 24 h. Colon-26 (C-26) adenocarcinoma cells were provided by a researcher at The Ohio State University. The C-26 cells were maintained in RPMI 1640 medium supplemented with 5% FBS and 1% penicillin/streptomycin.
ELISA. IL-6 release by differentiated THP-1 macrophages in response to 10 ng/ml of LPS was analyzed by using the IL-6 ELISA kit (Cayman Chemical Co.; Ann Arbor, Mich.) according to the manufacturer's instruction in triplicate. The effect of each test compound on LPS-stimulated IL-6 release is presented as percent inhibition and was calculated using the following formula: percentage inhibition=100%×{1−[(O.D. of sample−O.D. of control)/(O.D. of LPS−O.D. of control)]}.

[6] = system: human tumor cell lines of the cancer screening panel; test: NCI60 cell line screening; format: cell-based; details: 48 h, SRB; variety of cancer cell types
Method: The NCI60 screening method was carried out using the following methodology. The human tumor cell lines of the cancer screening panel were grown in RPMI 1640 medium containing 5% fetal bovine serum and 2 mM L-glutamine. The cells were then inoculated into 96 well microtiter plates in 100 μL at plating densities ranging from 5,000 to 40,000 cells/well depending on the doubling time of individual cell lines. After cell inoculation, the microtiter plates are incubated at 37° C., 5% CO2, 95% air and 100% relative humidity for 24 h prior to addition of the thiazolidinedione derivatives. […]
Following drug addition, the plates were incubated for an additional 48 h at 37° C., 5% CO2, 95% air, and 100% relative humidity. […] Bound stain is subsequently solubilized with 10 mM trizma base, and the absorbance was read on an automated plate reader at a wavelength of 515 nm. […] Using the seven absorbance measurements [time zero, (Tz), control growth, (C), and test growth in the presence of drug at the five concentration levels (Ti)], the percentage growth is calculated at each of the drug concentrations levels. Percentage growth inhibition is calculated as: [(Ti−Tz)/(C−Tz)]×100 for concentrations for which Ti>/=Tz [(Ti−Tz)/Tz]×100 for concentrations for which Ti<Tz.
Three dose response parameters were calculated for each experimental agent. […]

THP-1 cells = test: MTT viability of THP-1 cells; format: cell-based, human; details: at the concentrations used for IL-6 ELISA (dose range b224, 10 μM b226, 1 μM b229)
[7] = system: [3H]-2-DG uptake into LNCaP cells; test: Glucose uptake assay ([3H]-2-DG); format: cell-based; details: OSU-CG12 at 5 and 10 μM, resveratrol at 50 and 100 μM, P<0.05
Method: After washing cells with PBS, glucose uptake was initiated by addition of 1 mL of PBS containing 1 μCi/mL [^3H]-2-DG (Perkin Elmer, Waltham, Mass.) and […] nonradioactive 2-DG. After 5 min, glucose uptake was terminated by extensive washing with PBS, and cells were solubilized in 0.1% SDS buffer. Aliquots were taken for measurements of radioactivity using a scintillation counter LS6500 (Beckman).

[8] = LNCaP, MTT, 72 h, 10% FBS-supplemented medium, read-out: IC50 in inhibiting the viability of LNCaP prostate cancer cells

SMILES: O=CC[C@@H](O)[C@H](O)[C@H](O)CO [2-DG, 2-deoxyglucose]
- IC50 [1, 8]: 5500 µM
- dose range inducing autophagy in cancer cells (cancer cells): 5 to 25 mM
- cytotoxicity to normal prostate epithelial cells (PrECs) [2]: low cytotoxicity
- IC50 (glucose metabolism): ≥ 4000 µM
- IC50 [3]: 4200 µM
- duration of transient transcriptional activation of Sirt1 gene expression [4]: 4 h

SMILES: CCOc1c(C)c(C)c2c(c1C)CCC(C)(COc1ccc(C=C3SC(=O)NC3=O)cc1Br)O2 (stereo not shown) [Compound 8, 5-[3-Bromo-4-(6-ethoxy-2,5,7,8-tetramethyl-chroman-2-ylmethoxy)-benzylidene]-thiazolidine-2,4-dione]
- first-tier screening result (AMPK/mTOR activation status and IL-6/IL-6 receptor signaling) [5]: active
- inhibition at 10 µM [5]: > 80%

SMILES: CCCCOc1c(C)c(C)c2c(c1C)CCC(C)(COc1ccc(C=C3SC(=O)NC3=O)cc1OC)O2 (stereo not shown) [Compound 12, 5-[4-(6-Butoxy-2,5,7,8-tetramethyl-chroman-2-ylmethoxy)-3-methoxy-benzylidene]-thiazolidine-2,4-dione]
- first-tier screening result (AMPK/mTOR activation status and IL-6/IL-6 receptor signaling) [5]: active
- inhibition at 10 µM [5]: > 80%

SMILES: Cc1c(C)c2c(c(C)c1OCCCC#N)CCC(C)(COc1ccc(C=C3SC(=O)NC3=O)cc1Br)O2 (stereo not shown) [Compound 21, 4-{2-[2-Bromo-4-(2,4-dioxo-thiazolidin-5-ylidenemethyl)-phenoxymethyl]-2,5,7,8-tetramethyl-chroman-6-yloxy}-butyronitrile]
- first-tier screening result (AMPK/mTOR activation status and IL-6/IL-6 receptor signaling) [5]: active
- inhibition at 10 µM [5]: > 80%

SMILES: CCCN1C(=O)SC(=Cc2ccc(O)c(C(F)(F)F)c2)C1=O [Compound 44, 5-(4-Hydroxy-3-trifluoromethyl-benzylidene)-3-propyl-thiazolidine-2,4-dione]
- inhibition at 10 µM [5]: > 80%

SMILES: COc1ccc(S(=O)(=O)Nc2ccc(C=C3SC(=O)N(CC4(C)CCCCC4)C3=O)cc2)cc1 [Compound 49, 4-Methoxy-N-{4-[3-(1-methyl-cyclohexylmethyl)-2,4-dioxo-thiazolidin-5-yli-denemethyl]-phenyl}-benzenesulfonamide]
- first-tier screening result (AMPK/mTOR activation status and IL-6/IL-6 receptor signaling) [5]: active

SMILES: CC1(CN2C(=O)SC(=Cc3ccc(NS(=O)(=O)c4ccc([N+](=O)[O-])cc4)cc3)C2=O)CCCCC1 [Compound 54, N-{4-[3-(1-Methyl-cyclohexylmethyl)-2,4-dioxo-thiazolidin-5-ylidenemethyl]-phenyl}-4-nitro-benzenesulfonamide]
- first-tier screening result (AMPK/mTOR activation status and IL-6/IL-6 receptor signaling) [5]: active
- inhibition at 10 µM [5]: > 80%

SMILES: CCC(CC)CN1C(=O)S/C(=C\c2ccc(O)c(C(F)(F)F)c2)C1=O [OSU-CG5, (Z)-3-(2-Ethyl-butyl)-5-(4-hydroxy-3-trifluoromethyl-benzylidene)-thiazolidine-2-4-dione]
- antitumor potency in NCI 60 cell line screening [6]: significantly antitumor potency

- IC50 [1, 8]: 12 µM
- IC50 [3]: 11 µM
SMILES: C=CCOc1c(C)c(C)c2c(c1C)CCC(C)(COc1ccc(/C=C3\SC(=O)NC3=O)cc1Br)O2 (stereo not shown) [STG28]

- IC50 [1, 8]: 70 µM
- IC50 [3]: 42 µM
SMILES: CC1(COc2ccc(CC3SC(=O)NC3=O)cc2)CCCCC1 (stereo not shown) [ciglitazone]
- effect on viability of THP-1 cells (THP-1 cells): neither agent inhibited the viability of THP-1 cells

SMILES: Oc1ccc(C=Cc2cc(O)cc(O)c2)cc1 [resveratrol]
- inhibition of glucose uptake [7]: significantly inhibit glucose uptake
- IC50 [1, 8]: 110 µM
- IC50 ([1]; summary over LNCaP and MCF-7 cells, read-out: IC50 in suppressing cancer cell growth): 60 to 110 µM
- dose range inducing autophagy in cancer cells (cancer cells): 0.05 to 0.1 mM
- cytotoxicity to normal prostate epithelial cells (PrECs) [2]: low cytotoxicity
- IC50 (glucose metabolism): ≥ 50 µM
- IC50 [3]: 60 µM

- IC50 [1, 8]: 70 µM
- IC50 [3]: 70 µM
SMILES: Cc1c(C)c2c(c(C)c1O)CCC(C)(COc1ccc(CC3SC(=O)NC3=O)cc1)O2 (stereo not shown) [troglitazone]

Reference: patent publication US8383656B2, “Thiazolidinedione energy restriction-mimetic agents” (The Ohio State University Research Foundation, priority 2009, dated 2013)
